Data as given in ChEMBL document CHEMBL1800009, “Pyrazolopyridazine alpha-2-delta-1 ligands for the treatment of neuropathic pain” (Bioorg Med Chem Lett, 2010).

Tests used:
in vivo [1] = details: rat, whole blood
in vivo [2] = details: rat, brain/blood, 30 mg/kg

Row | Structure (SMILES) | clearance (in vivo [1]) [mL/min/kg] | Kp (in vivo [2])
1 | COC1CN(c2nnc(C)c3c(C)n(-c4ccc(Cl)cc4OC(F)(F)F)nc23)C1 | 52 | 0.94
2 | Cc1nnc(N2CCCC2)c2nn(-c3ccc(OCC(F)(F)F)cc3)c(C)c12 | 49 | –
